Experimental data from patent US20240218022A1, “ANTI-VISTA MACROCYCLIC PEPTIDES AND COMPOSITIONS” (BRISTOL-MYERS SQUIBB COMPANY, priority 2022, published 2024).
Like-named read-outs stand apart in the source and are kept apart here. Starred links: 1 amine or outer side, 2 acyl side, 3 side chain; linkers in the order of their positions; H or OH if unused. Positions of bridges follow the written chain, without caps; N, C: chain ends. Non-standard residues stand in square brackets, D forms with d. Residues, ends and D or L forms follow the SMILES beside them. ξ: configuration not given here. Phe(4-COOH) = N[C@@H](Cc1ccc(C(=O)O)cc1)C(=O)O; Phe(2,4-F2) = N[C@@H](Cc1ccc(F)cc1F)C(=O)O; Phe(3-Me) = Cc1cccc(C[C@H](N)C(=O)O)c1; γGlu = O=C(O)[C@H](CCC(=O)[*:2])N[*:1]; 2Nal = N[C@@H](Cc1ccc2ccccc2c1)C(=O)O; βAsp = O=C(O)[C@H](CC(=O)[*:2])N[*:1]; NMeIle(3ξ) = CCC(C)[C@H](NC)C(=O)O; Gly(cPr) = N[C@H](C(=O)O)C1CC1; Ahp(2) = CCCCC[C@H](N)C(=O)O; NMeNle = CCCC[C@H](NC)C(=O)O; Tle = CC(C)(C)[C@H](N)C(=O)O; NMeV = CN[C@H](C(=O)O)C(C)C; NHexGly = CCCCCCNCC(=O)O; NMeA = CN[C@@H](C)C(=O)O; Nle = CCCC[C@H](N)C(=O)O; Orn = NCCC[C@H](N)C(=O)O; Aun = NCCCCCCCCCCC(=O)O; AEEA = NCCOCCOCC(=O)O; ξS = NC(CO)C(=O)O

Biological target: T1, mouse VISTA (mVISTA) (Mus musculus, UniProt Q9D659)
T1 construct: expressed in transfected cells; host or cells: Human embryonic kidney 293T cells
T1 sequence (Q9D659 33-308): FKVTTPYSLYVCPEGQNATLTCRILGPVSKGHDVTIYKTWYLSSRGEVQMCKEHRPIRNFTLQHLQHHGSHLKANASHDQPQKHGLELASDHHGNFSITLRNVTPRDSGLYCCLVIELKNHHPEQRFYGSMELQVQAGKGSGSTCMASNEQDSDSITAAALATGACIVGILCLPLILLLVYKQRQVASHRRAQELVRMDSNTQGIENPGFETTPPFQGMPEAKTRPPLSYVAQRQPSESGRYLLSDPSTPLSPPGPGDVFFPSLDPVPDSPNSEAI
Experiment: Cell-Based Binding High-Content Assay For mVISTA (HC CBA mVISTA)
Summary of the method: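 Competition of compound with a biotinylated peptide (final 2 nM, 30 min at RT) for binding to mVISTA on 293T cells, run under no-wash or wash (1 h compound preincubation then removal) formats. Readout by Alexa 647–streptavidin imaging on a high-content platform; four-parameter logistic fit gave IC50.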

[1] = cell-based binding high-content assay, mVISTA, the 15th table, read-out: HC CBA mVISTA IC50

| Structure (SMILES) | IC50 (read-out: HC CBA mVISTA IC50) [nM] | further results |
| --- | --- | --- |
| CCCCCCN1CC(=O)N[C@@H](Cc2ccc(O)cc2)C(=O)N[C@@H](CC(C)C)C(=O)NCC(=O)N[C@@H](CCCNC(=N)N)C(=O)N[C@@H](CC(C)C)C(=O)N[C@@H](CCCCC)C(=O)N2CCC[C@H]2C(=O)N[C@@H](C(C)C)C(=O)N[C@@H](CO)C(=O)N[C@H](C(=O)N[C@@H](CCC(=O)NCCCCCCCCCCC(=O)O)C(=O)O)CSCC(=O)N[C@@H](Cc2ccccc2)C(=O)N[C@@H](Cc2ccc(O)cc2)C(=O)N[C@@H](CC(=O)O)C1=O [Example 2128] ({CH2CO}-FYD[NHexGly]YLGRL[Ahp(2)]PVSC[γGlu][Aun]-OH; thioether N-14) | 30.1 |  |
| CCCCCCN1CC(=O)N[C@@H](Cc2ccc(O)cc2)C(=O)N[C@@H](CCCC)C(=O)N[C@@H](CC(N)=O)C(=O)N[C@@H](CCCNC(=N)N)C(=O)N[C@@H](CC(C)C)C(=O)N[C@@H](CCCCC)C(=O)N2CCC[C@H]2C(=O)N[C@@H](C(C)C)C(=O)N[C@@H](CO)C(=O)N[C@H](C(=O)NCC(=O)O)CSCC(=O)N[C@@H](Cc2ccc(O)cc2)C(=O)N[C@@H](Cc2ccc(O)cc2)C(=O)N[C@@H](CC(=O)O)C1=O [compound 1473] ({CH2CO}-YYD[NHexGly]Y[Nle]NRL[Ahp(2)]PVSCG-OH; thioether N-14) |  | IC50 (the 20th table, scaffold drawing 23, read-out: HC CBA mVISTA IC50): 3.2 nM |
| CCCCCCN1CC(=O)N[C@@H](Cc2ccc(O)cc2)C(=O)N[C@@H](CCCC)C(=O)N[C@@H](CC(=O)O)C(=O)N[C@@H](CCCNC(=N)N)C(=O)N[C@@H](CC(C)C)C(=O)N[C@@H](CCCCC)C(=O)N2CCC[C@H]2C(=O)N[C@@H](C(C)C)C(=O)N[C@@H](CC(=O)O)C(=O)N[C@H](C(=O)N[C@@H](CO)C(N)=O)CSCC(=O)N[C@@H](Cc2cccc(C)c2)C(=O)N[C@@H](Cc2c[nH]c3ccccc23)C(=O)N[C@@H](CC(=O)O)C1=O [compound 1428] ({CH2CO}-[Phe(3-Me)]WD[NHexGly]Y[Nle]DRL[Ahp(2)]PVDCS-NH2; thioether N-14) |  | IC50 (the 19th table, scaffold drawing 22, read-out: HC CBA mVISTA IC50): 13.6 nM |
| CCCCCCN1CC(=O)N[C@@H](Cc2ccc(O)cc2)C(=O)N[C@@H](CCCC)C(=O)N[C@@H](CC(N)=O)C(=O)N[C@@H](CCCNC(=N)N)C(=O)N[C@@H](CC(C)C)C(=O)N[C@@H](CCCCC)C(=O)N2CCC[C@H]2C(=O)N[C@@H](C(C)C)C(=O)N[C@@H](C2CC2)C(=O)N[C@H](C(=O)NCC(=O)O)CSCC(=O)N[C@@H](Cc2ccc3ccccc3c2)C(=O)N[C@@H](Cc2c[nH]c3ccccc23)C(=O)N[C@@H](CC(=O)O)C1=O [compound 1232] ({CH2CO}-[2Nal]WD[NHexGly]Y[Nle]NRL[Ahp(2)]PV[Gly(cPr)]CG-OH; thioether N-14) |  | IC50 [1]: 36 nM |
| CCCCCCN1CC(=O)N[C@@H](Cc2ccc(O)cc2)C(=O)N[C@@H](CCCC)C(=O)N[C@@H](CC(N)=O)C(=O)N[C@@H](CCCNC(=N)N)C(=O)N(C)[C@@H](C(C)CC)C(=O)N[C@@H](CCCCC)C(=O)N2CCC[C@H]2C(=O)N[C@@H](C(C)C)C(=O)N[C@@H](CC(=O)O)C(=O)N[C@H](C(=O)NCC(=O)O)CSCC(=O)N[C@@H](Cc2ccc3ccccc3c2)C(=O)N[C@@H](Cc2c[nH]c3ccccc23)C(=O)N[C@@H](CC(=O)O)C1=O (some centres unmarked) [compound 1237] ({CH2CO}-[2Nal]WD[NHexGly]Y[Nle]NR[NMeIle(3ξ)][Ahp(2)]PVDCG-OH; thioether N-14) |  | IC50 [1]: 9.1 nM |
| CCCCCCN1CC(=O)N[C@@H](Cc2ccc(O)cc2)C(=O)N[C@@H](CCCCN)C(=O)N[C@@H](CC(N)=O)C(=O)N[C@@H](CCCNC(=N)N)C(=O)N[C@@H](CC(C)C)C(=O)N[C@@H](CCCCC)C(=O)N2CCC[C@H]2C(=O)N[C@@H](C(C)C)C(=O)N[C@@H](CO)C(=O)N[C@H](C(=O)NCC(=O)O)CSCC(=O)N[C@@H](Cc2ccccc2)C(=O)N[C@@H](Cc2ccc(O)cc2)C(=O)N[C@@H](CC(=O)O)C1=O [Example 1058] ({CH2CO}-FYD[NHexGly]YKNRL[Ahp(2)]PVSCG-OH; thioether N-14) |  | IC50 (293T cells expressing mouse VISTA, competition with biotinylated peptide (2 nM), read-out: HC CBA mVISTA IC50): 38.7 nM |
| CCCCCCN1CC(=O)N[C@@H](Cc2ccc(O)cc2)C(=O)N[C@@H](CC(C)C)C(=O)N[C@@H](CC(N)=O)C(=O)N[C@@H](CCCN)C(=O)N(C)[C@@H](C(C)C)C(=O)N[C@@H](CCCCC)C(=O)N2CCC[C@H]2C(=O)N[C@@H](C(C)(C)C)C(=O)N[C@@H](CO)C(=O)N[C@H](C(=O)N[C@@H](CCC(=O)NCCCCCCCCCCC(=O)O)C(=O)O)CSCC(=O)N[C@@H](Cc2ccccc2)C(=O)N[C@@H](Cc2ccc(O)cc2)C(=O)N[C@@H](CC(=O)O)C1=O [Example 2137] ({CH2CO}-FYD[NHexGly]YLN[Orn][NMeV][Ahp(2)]P[Tle]SC[γGlu][Aun]-OH; thioether N-14) | 18 |  |
| CCCCCCN1CC(=O)N[C@@H](Cc2ccc(O)cc2)C(=O)N[C@@H](CCCCC)C(=O)N[C@@H](CC(N)=O)C(=O)N[C@@H](CCCNC(=N)N)C(=O)N(C)[C@@H](CCCC)C(=O)N[C@@H](CCCCC)C(=O)N2CCC[C@H]2C(=O)N[C@@H](C(C)C)C(=O)N[C@@H](C(C)C)C(=O)N[C@H](C(=O)NC(CO)C(=O)O)CSCC(=O)N[C@@H](Cc2ccccc2)C(=O)N[C@@H](Cc2cccc(C)c2)C(=O)N[C@@H](CC(=O)O)C1=O (some centres unmarked) [compound 1346] ({CH2CO}-F[Phe(3-Me)]D[NHexGly]Y[Ahp(2)]NR[NMeNle][Ahp(2)]PVVC[ξS]-OH; thioether N-14) | 6.1 |  |
| CCCCCCN1CC(=O)N[C@@H](Cc2ccc(O)cc2)C(=O)N[C@@H](CCCC)C(=O)N[C@@H](CC(=O)O)C(=O)N[C@@H](CCCNC(=N)N)C(=O)N(C)[C@@H](CCCC)C(=O)N[C@@H](CCCCC)C(=O)N2CCC[C@H]2C(=O)N[C@@H](C(C)C)C(=O)N[C@@H](CC(=O)O)C(=O)N[C@H](C(=O)N[C@@H](CCC(=O)O)C(N)=O)CSCC(=O)N[C@@H](Cc2ccccc2)C(=O)N[C@@H](Cc2ccc(O)cc2)C(=O)N[C@@H](CC(=O)O)C1=O [Example 1078] ({CH2CO}-FYD[NHexGly]Y[Nle]DR[NMeNle][Ahp(2)]PVDCE-NH2; thioether N-14) |  | IC50 (293T cells expressing mouse VISTA, competition with biotinylated peptide (2 nM), read-out: CBA mVISTA IC50): 17.7 nM |
| CCCCCCN1CC(=O)N[C@@H](Cc2ccc(O)cc2)C(=O)N[C@@H](CCCC)C(=O)N[C@@H](CC(N)=O)C(=O)N[C@@H](CCCNC(=N)N)C(=O)N(C)[C@@H](CCCC)C(=O)N[C@@H](CCCCC)C(=O)N2CCC[C@H]2C(=O)N[C@@H](C(C)(C)C)C(=O)N[C@@H](CO)C(=O)N[C@H](C(=O)NCCOCCOCC(=O)N[C@@H](CCC(=O)NCCOCCOCC(=O)NCCCCCCCCCCC(=O)O)C(=O)O)CSCC(=O)N[C@@H](Cc2ccc(C(=O)O)cc2)C(=O)N[C@@H](Cc2ccc(O)cc2)C(=O)N[C@@H](CC(=O)O)C1=O [compound 2251] ({CH2CO}-[Phe(4-COOH)]YD[NHexGly]Y[Nle]NR[NMeNle][Ahp(2)]P[Tle]SC[AEEA][γGlu][AEEA][Aun]-OH; thioether N-14) | 28.6 |  |
| CCCCCCN1CC(=O)N[C@@H](Cc2ccc(O)cc2)C(=O)N[C@@H](CCCC)C(=O)N[C@@H](CC(N)=O)C(=O)N[C@@H](CCCNC(=N)N)C(=O)N(C)[C@@H](CCCC)C(=O)N[C@@H](CCCCC)C(=O)N(C)[C@@H](C)C(=O)N[C@@H](C(C)C)C(=O)N[C@@H](CO)C(=O)N[C@H](C(=O)NCC(N)=O)CSCC(=O)N[C@@H](Cc2ccccc2)C(=O)N[C@@H](Cc2c[nH]c3ccccc23)C(=O)N[C@@H](CC(=O)O)C1=O [compound 1143] ({CH2CO}-FWD[NHexGly]Y[Nle]NR[NMeNle][Ahp(2)][NMeA]VSCG-NH2; thioether N-14) | 17.6 |  |
| CCCCCCN1CC(=O)N[C@@H](Cc2ccc(O)cc2)C(=O)N[C@@H](CC(C)C)C(=O)NCC(=O)N[C@@H](CCCNC(=N)N)C(=O)N[C@@H](Cc2ccc(O)cc2)C(=O)N[C@@H](CCCCC)C(=O)N2CCC[C@H]2C(=O)N[C@@H](C(C)C)C(=O)N[C@@H](CC(=O)O)C(=O)N[C@H](C(=O)NCC(=O)O)CSCC(=O)N[C@@H](Cc2ccccc2)C(=O)N[C@@H](Cc2c[nH]c3ccccc23)C(=O)N[C@@H](CC(=O)O)C1=O [Example 1417] ({CH2CO}-FWD[NHexGly]YLGRY[Ahp(2)]PVDCG-OH; thioether N-14) | 24.9 |  |
| CCCCCCN1CC(=O)N[C@@H](Cc2ccc(O)cc2)C(=O)N[C@@H](CCCCC)C(=O)N[C@@H](CC(N)=O)C(=O)N[C@@H](CCCNC(=N)N)C(=O)N(C)[C@@H](CCCC)C(=O)N[C@@H](CCCCC)C(=O)N2CCC[C@H]2C(=O)N[C@@H](C(C)C)C(=O)N[C@@H](C(C)C)C(=O)N[C@H](C(=O)NCC(=O)O)CSCC(=O)N[C@@H](Cc2ccc(F)cc2F)C(=O)N[C@@H](Cc2ccc(F)cc2F)C(=O)N[C@@H](CC(=O)O)C1=O [compound 1217] ({CH2CO}-[Phe(2,4-F2)][Phe(2,4-F2)]D[NHexGly]Y[Ahp(2)]NR[NMeNle][Ahp(2)]PVVCG-OH; thioether N-14) | 16.2 |  |
| CCCCCCN1CC(=O)N[C@@H](Cc2ccc(O)cc2)C(=O)N[C@@H](CC(C)C)C(=O)N[C@@H](CC(N)=O)C(=O)N[C@@H](CCCN)C(=O)N(C)[C@@H](CCCC)C(=O)N[C@@H](CCCCC)C(=O)N2CCC[C@H]2C(=O)N[C@@H](C(C)(C)C)C(=O)N[C@@H](CC(=O)O)C(=O)N[C@H](C(=O)N[C@@H](CC(=O)NCCOCCOCC(=O)N[C@@H](CC(=O)O)C(=O)NCCOCCOCC(=O)NCCCCCCCCCCC(=O)O)C(=O)O)CSCC(=O)N[C@@H](Cc2ccccc2)C(=O)N[C@@H](Cc2cccc(C)c2)C(=O)N[C@@H](CC(=O)O)C1=O [compound 2074] ({CH2CO}-F[Phe(3-Me)]D[NHexGly]YLN[Orn][NMeNle][Ahp(2)]P[Tle]DC[βAsp][AEEA]D[AEEA][Aun]-OH; thioether N-14) |  | IC50 (cell-based binding high-content assay, mVISTA, read-out: HC CBA miPrISTA IC50): 40 nM |
